Data: paper doi:10.1101/2021.04.08.439011v1 (biorxiv, 2021)

Tests used:
Test in all cases: biochemical
Conditions in all cases: read-out: Residual activity
TTBK1 = TTBK1 (Homo sapiens, UniProt Q5TCY1)
LTK = LTK (Homo sapiens, UniProt P29376)
DYRK1B = DYRK1B (Homo sapiens, UniProt Q9Y463)
STK33 = STK33 (Homo sapiens, UniProt Q9BYT3)
Sequence of STK33 (Q9BYT3 whole entry): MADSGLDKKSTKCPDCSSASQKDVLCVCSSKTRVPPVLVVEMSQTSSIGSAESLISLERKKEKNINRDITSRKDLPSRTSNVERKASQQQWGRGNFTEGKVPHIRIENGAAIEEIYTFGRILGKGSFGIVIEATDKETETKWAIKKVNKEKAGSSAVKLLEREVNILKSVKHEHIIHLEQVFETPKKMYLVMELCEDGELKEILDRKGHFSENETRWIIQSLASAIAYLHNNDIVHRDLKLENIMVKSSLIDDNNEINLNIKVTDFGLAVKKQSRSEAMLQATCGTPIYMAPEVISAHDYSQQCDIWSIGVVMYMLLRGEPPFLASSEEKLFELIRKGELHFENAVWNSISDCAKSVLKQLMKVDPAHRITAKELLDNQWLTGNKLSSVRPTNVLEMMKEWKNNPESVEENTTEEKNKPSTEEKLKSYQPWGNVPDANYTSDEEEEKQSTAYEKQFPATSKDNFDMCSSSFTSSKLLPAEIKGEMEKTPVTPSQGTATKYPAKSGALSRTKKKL

Sequence of DYRK1B (Q9Y463 whole entry): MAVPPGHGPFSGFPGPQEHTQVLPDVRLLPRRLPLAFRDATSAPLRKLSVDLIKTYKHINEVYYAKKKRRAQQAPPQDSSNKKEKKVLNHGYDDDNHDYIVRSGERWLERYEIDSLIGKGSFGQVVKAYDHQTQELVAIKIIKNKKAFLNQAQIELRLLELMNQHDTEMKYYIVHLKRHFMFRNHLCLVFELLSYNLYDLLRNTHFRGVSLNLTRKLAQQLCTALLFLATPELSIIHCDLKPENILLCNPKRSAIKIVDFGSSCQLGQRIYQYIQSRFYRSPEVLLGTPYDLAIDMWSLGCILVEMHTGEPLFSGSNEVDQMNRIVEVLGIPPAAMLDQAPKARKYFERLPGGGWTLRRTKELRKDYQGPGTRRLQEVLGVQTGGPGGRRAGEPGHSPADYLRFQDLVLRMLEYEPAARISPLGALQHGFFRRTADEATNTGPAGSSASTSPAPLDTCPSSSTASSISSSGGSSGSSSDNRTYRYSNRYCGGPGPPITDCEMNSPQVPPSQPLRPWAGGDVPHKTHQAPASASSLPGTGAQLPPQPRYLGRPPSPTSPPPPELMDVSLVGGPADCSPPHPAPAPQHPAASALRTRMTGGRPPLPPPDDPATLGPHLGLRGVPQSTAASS
Sequence of LTK (P29376 whole entry): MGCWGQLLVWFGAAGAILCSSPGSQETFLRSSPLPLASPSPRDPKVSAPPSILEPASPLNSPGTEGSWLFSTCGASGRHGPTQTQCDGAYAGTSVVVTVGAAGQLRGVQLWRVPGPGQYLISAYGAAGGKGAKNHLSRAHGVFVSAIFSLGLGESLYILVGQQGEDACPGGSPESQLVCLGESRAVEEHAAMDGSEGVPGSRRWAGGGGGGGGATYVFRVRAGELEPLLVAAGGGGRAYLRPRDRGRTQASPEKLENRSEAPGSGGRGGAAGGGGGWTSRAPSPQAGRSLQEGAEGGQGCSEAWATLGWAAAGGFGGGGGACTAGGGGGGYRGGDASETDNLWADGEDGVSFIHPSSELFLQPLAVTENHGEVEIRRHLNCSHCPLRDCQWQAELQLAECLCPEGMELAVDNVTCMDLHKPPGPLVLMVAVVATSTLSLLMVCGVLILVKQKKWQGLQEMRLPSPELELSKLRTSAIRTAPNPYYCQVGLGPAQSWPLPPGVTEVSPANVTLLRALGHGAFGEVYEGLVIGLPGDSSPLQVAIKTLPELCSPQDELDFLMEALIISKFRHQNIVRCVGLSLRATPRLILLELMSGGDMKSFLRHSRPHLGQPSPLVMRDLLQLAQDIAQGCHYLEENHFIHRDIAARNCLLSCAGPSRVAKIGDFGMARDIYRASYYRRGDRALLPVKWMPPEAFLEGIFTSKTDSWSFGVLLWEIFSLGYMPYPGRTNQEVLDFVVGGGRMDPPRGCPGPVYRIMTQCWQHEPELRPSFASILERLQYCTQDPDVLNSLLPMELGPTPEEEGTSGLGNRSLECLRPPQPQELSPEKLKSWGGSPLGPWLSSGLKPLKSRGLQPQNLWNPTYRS
Sequence of TTBK1 (Q5TCY1 whole entry): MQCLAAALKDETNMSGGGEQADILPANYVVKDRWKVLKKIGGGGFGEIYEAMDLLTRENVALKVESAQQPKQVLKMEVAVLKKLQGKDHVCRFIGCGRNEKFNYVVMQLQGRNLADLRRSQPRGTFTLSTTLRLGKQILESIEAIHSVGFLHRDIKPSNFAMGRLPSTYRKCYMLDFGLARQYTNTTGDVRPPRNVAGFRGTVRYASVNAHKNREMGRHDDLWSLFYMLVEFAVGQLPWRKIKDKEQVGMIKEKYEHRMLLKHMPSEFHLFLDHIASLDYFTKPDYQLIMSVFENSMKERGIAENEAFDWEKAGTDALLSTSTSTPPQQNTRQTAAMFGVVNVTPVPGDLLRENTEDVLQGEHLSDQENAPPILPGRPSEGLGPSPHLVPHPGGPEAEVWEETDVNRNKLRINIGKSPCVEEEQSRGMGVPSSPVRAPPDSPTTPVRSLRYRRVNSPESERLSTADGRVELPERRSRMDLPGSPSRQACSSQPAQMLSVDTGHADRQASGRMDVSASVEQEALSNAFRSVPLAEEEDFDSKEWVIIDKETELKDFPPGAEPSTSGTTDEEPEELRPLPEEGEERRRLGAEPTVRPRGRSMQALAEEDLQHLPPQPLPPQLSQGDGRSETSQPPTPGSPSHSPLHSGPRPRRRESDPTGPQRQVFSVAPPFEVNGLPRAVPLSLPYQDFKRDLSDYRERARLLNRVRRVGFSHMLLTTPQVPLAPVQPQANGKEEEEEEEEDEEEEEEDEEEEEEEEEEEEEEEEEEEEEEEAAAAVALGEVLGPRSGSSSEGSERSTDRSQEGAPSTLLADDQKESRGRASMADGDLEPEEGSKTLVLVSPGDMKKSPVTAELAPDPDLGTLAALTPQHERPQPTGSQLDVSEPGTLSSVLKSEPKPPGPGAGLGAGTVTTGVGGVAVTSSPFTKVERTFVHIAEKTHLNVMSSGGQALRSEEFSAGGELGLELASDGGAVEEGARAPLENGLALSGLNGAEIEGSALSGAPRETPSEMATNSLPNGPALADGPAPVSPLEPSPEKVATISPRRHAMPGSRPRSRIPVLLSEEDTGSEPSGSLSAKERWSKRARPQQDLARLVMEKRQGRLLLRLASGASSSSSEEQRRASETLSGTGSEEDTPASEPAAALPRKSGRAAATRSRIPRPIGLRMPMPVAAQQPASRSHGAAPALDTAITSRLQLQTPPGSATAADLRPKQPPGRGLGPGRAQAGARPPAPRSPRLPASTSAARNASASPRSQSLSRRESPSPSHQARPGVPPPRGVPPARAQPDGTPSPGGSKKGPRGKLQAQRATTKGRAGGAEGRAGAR

remaining activity at 1 µM (TTBK1): 131%
remaining activity at 1 µM (LTK): 105%
remaining activity at 1 µM (DYRK1B): 98%
remaining activity at 1 µM (STK33): 89%
SMILES: CNc1ncc2cc(-c3ccc(-c4ncccc4F)cc3Cl)c(=O)n(CC3OCC(N)CO3)c2n1 (stereo not shown) [compound 10, 8-(((2r,5r)-5-Amino-1,3-dioxan-2-yl)methyl)-6-(2-chloro-4-(3-fluoropyridin-2-yl)phenyl)-2-(methylamino)pyrido[2,3-d]pyrimidin-7(8H)-one]
